Test results taken from patent US20120157396A1, “PYRAZINAMIDE FOR IMMUNOSTIMULATION AND THE TREATMENT OF LEISHMANIASES” (priority 2009, published 2012).
Where two headings read alike, the source gives them in different places.

Legend:
L. major amastigotes = L. major amastigotes within J774 cells, parasite survival; format: cell-based; conditions: for MIC50: Leishmania major
Description: To distinguish between leishmaniostatic and leishmanicidal effects, a time course survival curve was generated for J774 cultures infected with L. major.
Amastigotes were generated by infecting J774 murine macrophages. Infections were carried after seeding cells in 8-well Labtek chambers (Thermo Physic Scientific, Rochester N.Y.) at a concentration of 5×10^4 cells/well. To avoid multiplication, cells were incubated with mitomycin C at a concentration of 0.8 μg/ml for 16 h. Infective-stage promastigotes (metacyclics) of L. major were isolated from stationary cultures (4-5 day-old) by Ficoll enrichment, added to macrophage cultures (5 promastigotes: 1 cell) and kept overnight at 37° C. in the presence of 5% CO2 and DMEM with 10% FCS. Sixteen hours later, non-internalized promastigotes were then washed and replaced by culture medium containing the drug. Forty-eight hours later, wells were detached from the slides, stained with Diff-Quick (Dade Behring, Newark, Del.) and counted under light microscope. Parasite burden was determined by observation under light microscopy (1000×) as the number of amastigotes per one hundred J774 cells. Percentage of survival of amastigotes and MIC50 were calculated as above.

L. major = format: in vivo, C57BL/6 mice
Description: Mouse Model of CL. To assess the in vivo efficacy of PZA in a relevant in vivo model of cutaneous leishmaniasis, C57BL/6 mice were intradermally infected with 5×10^5 L. major parasites per ear (n=6 mice, 12 ears). One day after infection, mice were treated orally with PZA at several concentrations (900-150 mg/kg) for four weeks, five days a week. […] Parasite burden in ears was determined at 5 weeks post infection in all experimental groups.
Mice (n=6) were anesthetized with isoflurane (Abbott Laboratories, Chicago, Ill.) and vaccinated intradermally in both ears with 5×10^5 L. major promastigotes in a volume of 10 μl using a 27½ G needle. PZA was diluted in water and administered by oral gavage in a 0.2 ml volume. A control group was treated with water containing DMSO (3.8%). The timetable for the experiment was as follows: day 0, infection; days 1-5, 8-12, 15-19 and 22-26, drug administration, and day 70, sacrifice. Lesion size was monitored 1-2 times per week by measuring the lesion diameter with a vernier caliper. Mice were sacrificed by CO2 inhalation.
Parasite loads in the ears were determined as previously described. Briefly, the ventral and dorsal sheets of the infected ears were separated and deposited in RPMI containing 100 U/ml penicillin/100 μg/ml streptomycin and Liberase CI enzyme blend (Boehringer Mannheim, 0.5 mg/ml). Ears were incubated for 60 min at 37° C. The sheets were dissociated using a handheld tissue homogenizer. The homogenates were filtered using a 70 μm an cell strainer (BD Falcon, San Jose, Calif.) and serially diluted in a 96-well flat bottom microtiter plate containing biphasic medium prepared using 50 μl NNN medium containing 20% of defibrinated rabbit blood overlaid with 100 μl medium 199. The number of viable parasites in each ear was estimated from the highest dilution at which promastigotes could be grown out after 7 days of incubation at 26° C.

Leishmania = experiment: J774 cells infected with old- and new-world Leishmania species, 48 hr post treatment; format: cell-based
Description: FIG. 8. Effect of PZA on J774 cells infected with Leishmania 48 hr post treatment. Data expressed as % survival compared to untreated control (100% survival). Mean±SD of 3 independent determinations.
FIG. 9. A. Effect of 5-Chloro PZA on J774 cells infected with Leishmania, 48 hr post treatment. Data expressed as % survival compared to untreated control (100% survival). Mean±SD of 3 independent determinations. […] B. Cytokine IL-2 production—5-Chloro PZA stimulated 2× more proinflammatory cytokines than PZA, even in Leishmania-infected macrophages (similar results with IFNγ, TNFα, NO).

| MIC (Leishmania; variety of old- and new-world leishmanial species in J774 cells, 48 hr) [µM] | Compound | MIC50 reduced relative to PZA (L. major amastigotes; L. major amastigotes within J774 cells) [fold] | MIC50 for PZA analogs (L. major amastigotes; L. major amastigotes within J774 cells (Table Ia)) [μM] | average lesion size compared to untreated controls (L. major; 5-Cl PZA oral, 150 mg/kg) | activity at killing leishmanial species relative to PZA (Leishmania; old- and new-world leishmanial species in J774 cells) [fold] | increase in MIC50 of amastigotes versus promastigotes (L. major amastigotes; 48 hours post infection) [fold] | MIC50 (L. major amastigotes; 48 h, amastigote in J774, 48 h, read-out: MIC50) [µg/mL] | MIC50 (L. major amastigotes; L. major amastigotes within J774 cells (Table Ia), read-out: MIC50 for PZA analogs) [µM] | percentage of survival compared to untreated control (L. major amastigotes; amastigote in J774, PZA 1 μg/ml, 48 h) [%] | percentage of survival compared to untreated control (L. major amastigotes; amastigote in J774, PZA 12.5 μg/ml, 48 h) [%] | percentage of survival compared to untreated control (L. major amastigotes; amastigote in J774, PZA 100 μg/ml, 48 h) [%] | percentage of survival compared to untreated control (L. major amastigotes; amastigote in J774, PZA 1000 μg/ml, 48 h) [%] | parasite burden in ears after healing (L. major; 12 weeks post infection) | average lesion size compared with untreated mice (L. major; PZA oral 900-150 mg/kg, four weeks, five days a week, all time points) | decrease of parasite burden in infected ears compared to untreated control (L. major; PZA oral, week 6 post infection) [fold] | body weight of experimental animals (L. major; mouse, in vivo) | killing of Leishmania species (Leishmania; J774 cells infected with Leishmania, 48 hr post treatment (FIG. 8)) |
| --- | --- | --- | --- | --- | --- | --- | --- | --- | --- | --- | --- | --- | --- | --- | --- | --- | --- |
| 1 to 13 | NC(=O)c1cnc(Cl)cn1 [5-Cl PZA, 5-chloro pyrazinamide] | 5 | 2.1 | significant reduction in average lesion size | 10 | – | – | – | – | – | – | – | – | – | – | – | – |
| – | NC(=O)c1cnccn1 [PZA, pyrazinamide] | – | – | – | – | 10 | 10.2 | 9.5 | 89 ± 12 | 47 ± 12 | 23 ± 10 | 20 ± 15 | comparable among all experimental groups | significant (P=0.0001) reduction of the average lesion size | 100 | no significant differences in body weight | killed old-world and new-world VL leishmanial species |
